Test results taken from ChEMBL document CHEMBL4477227, “Synthesis and antibacterial evaluation of macrocyclic diarylheptanoid derivatives” (Bioorg Med Chem Lett, 2016).
pIC50: −log10 of the molar value.

Test system: J774.1
Test: Inhibition of LPS-induced NO production in mouse J774.1 cells after 24 by Griess assay
Format: functional, cell-based

O=C1CCCCc2ccc(OC(=O)c3ccccc3)c(c2)Oc2ccc(cc2)CC1
pIC50: 4.89
